This passage reports TGI and GI50 results from PubChem BioAssay (NCI).

Experiment in all cases: NCI tumour cell line growth inhibition, 48 h
For experiment [1], the system named is SN12C renal.
The subject of experiment [2] is HCC-2998 colon.
Experiment [3] concerns SNB-75 CNS.
Experiment [4] relates to 786-0 renal.
Experiment [5] has as its system SF-539 CNS.
The subject of experiment [6] is SNB-19 CNS.
Experiment [7] has as its system OVCAR-4 ovarian.
Experiment [8] relates to K-562 leukemia.
In experiment [9] the test system is IGROV1 ovarian.
Experiment [10] relates to SK-OV-3 ovarian.

The structures appear in SMILES notation.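 Exposure lasted 48 hours, with cells grown in 96-well plates and compounds tested at five concentrations. At the GI50, growth is halved. Definition used: TGI = concentration required for complete inhibition of growth.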 Where only a bound is given, the exact number is not on record here.

In the case of `COC1C(OC(=S)Nc2ccccc2)c2ccccc2N1C(C)=O` (configuration not stated), the TGI in experiment [1], in [2], in experiment [3], in experiment [4], in experiment [5] and in [6] was above 100 µM each time. The TGI in experiment [7], in experiment [8] and in experiment [9] was above 100 µM in each case.
For `Cc1cc2c(=O)c3ccccc3[nH]c2c(C(N)=O)c1C`, the TGI in experiment [1], in experiment [3], in experiment [4], in experiment [10], in experiment [5] and in experiment [6] was above 100 µM throughout. The TGI in [7], in [8] and in experiment [9] was above 100 µM throughout.
In the case of `CCOC(=O)Nc1cc2c(c(N)n1)N=C(c1ccccc1)CO2`, the GI50 is 0.84 µM in experiment [1]; 414 nM in experiment [2]; 1210 nM in experiment [4]; 0.289 µM in [10]; 195 nM in experiment [5]; 0.414 µM in experiment [6]. Further, the GI50 in experiment [7] was 2.46 µM; in [8], 33.6 nM; in experiment [9], 0.148 µM. Moreover, the TGI was 31.1 µM in [1]; 8.96 µM in experiment [2]; 20.9 µM in [4]; 9.4 µM in [10]; 0.789 µM in [5]; 25 µM in experiment [6]. For the same compound, the TGI was 36.4 µM in [7], 34 µM in experiment [8] and 11.9 µM in experiment [9].
`COc1c(O)c2c(=O)cc3c4c5c(cc(=O)c6c(O)c(OC)c(CC(C)O)c(c(c1CC(C)O)c24)c65)OCO3` (configuration not stated): the TGI in experiment [1] is 3.18 µM; in [3], 7.56 µM; in [4], 11.1 µM; in experiment [10], 20.4 µM; in experiment [5] it was 4.31 µM; in [6], 7.53 µM. Moreover, the TGI in experiment [7] stood at 2.74 µM; in [8], 43.3 µM; in experiment [9], 4.63 µM.
Turning to `Nc1ncn([C@@H]2O[C@H](CO)[C@@H](O)[C@H]2O)c(=O)n1`, the GI50 in experiment [1] was 0.594 µM; in experiment [2], 636 nM; in [3], 1630 nM; in [4], 687 nM; in experiment [10] it was 1.14 µM; in experiment [6] it was 4.1 µM. The GI50 in [8] is 572 nM. The TGI in experiment [1] was above 100 µM; in experiment [2], 5.55 µM; in [3], 6.2 µM; in experiment [4], 13.8 µM; in [10], 5.46 µM; in experiment [6], above 100 µM. In experiment [8], this compound gave a TGI above 100 µM.
With `COc1cnc2c(c1)C(=O)c1c-2n(CCCNC2=NCCS2)c(=O)c2cc([N+](=O)[O-])ccc12`, the GI50 is 1030 nM in experiment [2]; 32.9 nM in experiment [3]; 23.5 nM in [4]; 35.9 nM in experiment [5]; 0.482 µM in [7]. Further, the TGI in experiment [2] stood at 2.45 µM; in [3], 1.81 µM; in experiment [4], 0.0925 µM; in experiment [5] it was 1.05 µM; in [7], 2.58 µM.
In the case of `CC(=O)Nc1ccc(-c2csc(Nc3cccc(-c4csc(C)n4)c3)n2)cc1`, the GI50 in experiment [1] is 1.36 µM; in experiment [2], 6.57 nM; in [4], 2030 nM; in experiment [10], 2.38 µM; in [5] it was 1100 nM; in experiment [6], 1.6 µM. The GI50 in [8] is 385 nM; in [9] it was 3.79 µM. Also, the TGI in experiment [1] was 6.78 µM; in experiment [2], 8.98 µM; in experiment [4], 18.2 µM; in experiment [10] it was 19.1 µM; in experiment [5], 6.83 µM; in experiment [6] it was above 50 µM. For the same compound, the TGI was 9.55 µM in [8] and above 30.9 µM in experiment [9].
Turning to `Clc1cc2c(c(CSc3nc4ccccc4n4cccc34)c1)OCOC2`, the GI50 in experiment [1] is above 100 µM; in [2] it was above 100000 nM; in experiment [3], 6480 nM; in experiment [4], 51600 nM; in experiment [10], 13.7 µM; in [5] it was 22900 nM. Moreover, the values for the GI50 in experiment [6], in experiment [8] and in experiment [9] were 41 µM, above 100000 nM and 4.26 µM, respectively. For the same compound, the TGI is above 100 µM in experiment [1]; above 100 µM in experiment [2]; 26.8 µM in [3]; above 100 µM in experiment [4]; 45 µM in experiment [10]; above 100 µM in experiment [5]. In addition, the TGI in experiment [6], in [8] and in [9] was above 100 µM throughout.
On to `COC(=O)/C(C#N)=C1\N=NNN1c1ccc(OC)cc1`, for which the TGI in [1], in experiment [2], in [3], in experiment [4], in experiment [10] and in [5] was above 100 µM in each case. Moreover, the TGI in [6], in experiment [8] and in experiment [9] was above 100 µM each time.
As for `COc1ccc(-c2nnc3n(C)c(=O)c4ccccc4n23)cc1N`, the GI50 in experiment [1] was 6.83 µM; in experiment [2], 5290 nM; in experiment [4], 3720 nM; in experiment [10] it was 3.25 µM; in experiment [5] it was 1630 nM; in experiment [6], 3.65 µM. The values for the GI50 in experiment [7], in experiment [8] and in experiment [9] were 16.3 µM, 39.5 nM and 14.7 µM, respectively. The TGI was above 100 µM in [1]; above 100 µM in [2]; above 100 µM in experiment [4]; above 100 µM in [10]; 8.82 µM in experiment [5]; above 100 µM in experiment [6]. Further, the TGI in experiment [7], in experiment [8] and in [9] was above 100 µM each time.
With `COCC(OC)C(CC=C(C#N)C#N)OC` (configuration not stated), the TGI in experiment [1], in experiment [2], in [4], in [10], in experiment [5] and in experiment [6] was above 100 µM throughout. The TGI in experiment [7], in [8] and in [9] was above 100 µM throughout.
As for `O=C(Nc1cccc(C(F)(F)F)c1)c1ccc(NC2=C(Cl)C(=O)N(Cc3ccc(Cl)cc3Cl)C2=O)cc1`, the GI50 is 17.4 µM in experiment [1]; 14600 nM in experiment [3]; 3960 nM in experiment [4]; 60.4 µM in experiment [10]; 8060 nM in experiment [5]; 22.8 µM in experiment [6]. Also, the GI50 is 11.1 µM in experiment [7], 1830 nM in experiment [8] and 2.01 µM in [9]. In addition, the TGI is 32.8 µM in [1]; 33.3 µM in experiment [3]; 14.3 µM in experiment [4]; above 100 µM in experiment [10]; 21.5 µM in experiment [5]; above 100 µM in [6]. The TGI in [7] was found to be 42.6 µM; in experiment [8] it was 4.49 µM; in experiment [9], 4.56 µM.
As for `CCCCCCCCCCCCCCCC(=O)OCCOCCOCCOCc1ccccc1`, the TGI in [1], in [3], in experiment [4], in [5], in [6] and in experiment [7] was above 100 µM in each case. Besides, the TGI in experiment [9] is above 100 µM.
For `COC(=O)C(=Cc1cc(OC)c(OC)c(OC)c1-c1cc2c(cc1C1(C)OCCS1)OCO2)C(=O)OC` (configuration not stated), the TGI in [1], in experiment [2], in experiment [4], in [10], in experiment [5] and in experiment [6] was above 100 µM each time. The TGI in experiment [8] and in [9] was above 100 µM each time.
`O=C(OC1CCC(=C2SCCCS2)[C@H]1C1SCCCS1)c1ccccc1` (some centres not stated): the TGI in experiment [1], in [2], in [4], in experiment [10], in experiment [5] and in experiment [6] was above 100 µM throughout. Further, the TGI in [7], in experiment [8] and in [9] was above 100 µM throughout.
For the compound `O=C(CC1C(=O)Nc2ccccc2S1=O)Nc1cc(Cl)ccc1Cl` (configuration not stated), the TGI in experiment [1], in experiment [2], in [3], in experiment [4], in [5] and in experiment [6] was above 100 µM in each case. Further, the TGI in experiment [8] and in experiment [9] was above 100 µM in each case.
Regarding `CN1C(=O)c2ccccc2NC(=O)C12O[C@@H]2c1ccccc1` (some centres not stated), the TGI in experiment [1], in experiment [2], in experiment [3], in experiment [4], in experiment [5] and in experiment [7] was above 100 µM in each case. For the same compound, the TGI in experiment [9] was above 100 µM.
With `C=CCCCCC1CCC2CCC(CCCCC=C)N12` (configuration not stated), the TGI was found to be 29.9 µM in experiment [1]; 30 µM in experiment [2]; 43.1 µM in [3]; 26.9 µM in experiment [4]; 30.6 µM in [5]; 35.3 µM in experiment [6]. In addition, the TGI turned out to be 26.3 µM in [7] and 42.1 µM in experiment [8].
In the case of `CCOC(=O)c1nc2c(OC)nn(O)cc-2c1[N+](=O)[O-]`, the TGI in experiment [1] is 34.7 µM; in [4], 30.7 µM; in experiment [10], above 100 µM; in experiment [5], 73.3 µM; in experiment [6], 62.8 µM; in experiment [7], 34.9 µM. Moreover, the values for the TGI in experiment [8] and in [9] were 36.8 µM and above 100 µM, respectively.
Turning to `COc1ccc(C(=O)Nc2ccc(O)c(=O)cc2)cc1`, the TGI was above 100 µM in experiment [1]; above 100 µM in experiment [2]; above 100 µM in experiment [4]; 81.1 µM in experiment [5]; 93.6 µM in experiment [6]; 77.3 µM in experiment [8]. In [9], this compound returned a TGI above 100 µM.
Regarding `O=C(Nc1cccc(Cl)c1)C(=O)C(C(=O)c1ccc2ccccc2c1)C1OC(=O)c2ccccc21` (configuration not stated), the TGI was 51 µM in experiment [1]; 21.8 µM in [2]; 22.9 µM in [4]; above 100 µM in experiment [10]; 28 µM in experiment [6]; 33 µM in [7]. Moreover, the TGI in experiment [8] was found to be 70.2 µM; in experiment [9], 96.3 µM.
Take `Cc1ccc2nc(/C(=C/c3ccc(/C=C(\NC(=O)c4ccccc4)c4nc5ccc(C)cc5[nH]4)c(C)c3)NC(=O)c3ccccc3)[nH]c2c1`: the TGI in [1] was 30.1 µM; in [3], above 100 µM; in experiment [4], 60.4 µM; in [10] it was above 100 µM; in [5], 28.9 µM; in [6], above 100 µM. For the same compound, the TGI was 45.4 µM in experiment [8] and above 100 µM in experiment [9].
For the compound `CN1CCN(c2ccc(Nc3cc(-c4cccc(-n5ccc6cc(C7CC7)cc(F)c6c5=O)c4CO)cn(C)c3=O)nc2)CC1`, the GI50 in [1] was 3.35 µM; in [2], 10400 nM; in experiment [3], 1330 nM; in experiment [4], 2010 nM; in experiment [10], 14.6 µM; in experiment [5] it was 1820 nM. For the same compound, the GI50 was 3.15 µM in [6], 3170 nM in experiment [8] and 8.65 µM in experiment [9]. The TGI is 13.9 µM in experiment [1]; 35.8 µM in experiment [2]; 2.96 µM in experiment [3]; 4.44 µM in experiment [4]; 29.5 µM in experiment [10]; 3.63 µM in experiment [5]. The TGI in [6] stood at 15.4 µM; in experiment [8], 12 µM; in [9], 25.7 µM.
Turning to `c1ccc2c(OCCSCCCCCCCCCCSCCOc3cccc4ccccc34)cccc2c1`, the TGI in experiment [1], in experiment [2], in experiment [3], in experiment [4], in experiment [10] and in experiment [5] was above 100 µM throughout. Besides, the TGI in experiment [6], in experiment [8] and in experiment [9] was above 100 µM in each case.
